Laboratory results published in patent US8338492B2, “Films and particles” (priority 2006, dated 2012).

Legend:
[1] = system: Tumor cells; conditions: estimated
Description: Cell proliferation assays were utilized to study the effects of paclitaxel-loaded microparticles on tumor growth. Tumor cells were plated at 3000 cells/well and positive (serum-rich) and negative (serum-poor) cultures were used to signify 0% and 100% growth inhibition respectively.

[2] = system: Calu6 (human lung cancer) cell line; assay: Cell proliferation assay (MTT, 5 days) with paclitaxel; format: cell-based; conditions: media containing 10% FBS
Description: (§1) Lewis Lung Carcinoma (LLC), Melanoma and Calu6 (human lung cancer) cell lines were plated at 3,000 cells/well and when established, cultured in media with/without paclitaxel.

[3] = system: Lewis Lung Carcinoma (LLC) cell line; assay: as above; format: cell-based, murine; conditions: media containing 10% FBS
Description: as §1

[4] = system: Melanoma cell line; conditions: 5 days, media containing 10% FBS
Description: Cell proliferation assays testing the effects of paclitaxel were performed using three tumor cell lines. Lewis Lung Carcinoma (LLC), Melanoma and Calu6 (human lung cancer) cell lines were plated at 3,000 cells/well and when established, cultured in media with/without paclitaxel. Some cultures were maintained with optimal growth factors (serum) whereas others were serum starved (non-growing) cultures. At the end of 5 days, tumor cell proliferation was assessed via MTT analysis.
To determine the kinetics of the anti-tumor response elicited by paclitaxel-loaded microparticles and to assess for a potential “burst effect” of drug release, a cell proliferation assay comparing paclitaxel-loaded microparticles and DMSO (control) microparticles using the melanoma cell line was run for five consecutive days with a plate undergoing MTT analysis each day for days 2-5. Paclitaxel loaded microparticles and DMSO microparticles were added to serum rich media and individually assessed on tumor cells of the same plate.

CC(=O)O[C@H]1C(=O)[C@@]2(C)[C@H]([C@H](OC(=O)c3ccccc3)[C@]3(O)C[C@H](OC(=O)[C@H](O)[C@@H](NC(=O)c4ccccc4)c4ccccc4)C(C)=C1C3(C)C)[C@]1(OC(C)=O)CO[C@@H]1C[C@@H]2O [paclitaxel]
range of tumoricidal effects of paclitaxel [1]: 5 to 10 ng
paclitaxel concentration that reliably inhibits growth [2]: 1 to 10 ng/mL
paclitaxel concentration that reliably inhibits growth [3]: 1 to 10 ng/mL
paclitaxel concentration that reliably inhibits growth [4]: 1 to 10 ng/mL
